# Source: patent US12509437B2, “Substituted thiophene carboxamides and derivatives thereof as microbicides” (Bayer Aktiengesellschaft, priority 2019, dated 2025)
# Read-outs that look alike come from different tables or passages of the source.
# Key:
# [1] = tested on: salicylate responsive promoter sequence of the PR1 (pathogenesis-related protein I) gene (AT2G14610); experiment: Induction of defense gene expression in Arabidopsis thaliana (PR1 promoter-GFP reporter plants); type: in vivo; conditions: 72 h, 3rd day after spraying, mock treated leaves set as 1.00, read-out: relative fluorescence value
# Procedure: Arabidopsis thaliana reporter plants containing the coding sequence of a green fluorescent protein (GFP) linked to the salicylate responsive promoter sequence of the PR1 (pathogenesis-related protein I) gene (AT2G14610) were grown for five days and then sprayed with compounds. On the 3rd day after spraying, plant fluorescence was assessed with a MacroFluo instrument from Leica Microsystems (Wetzlar, Germany). Fluorescences were quantified with the Meta-Morph Microscopy Automation & Image Analysis Software (Molecular Devices, Sunnyvale, Calif., United States). Background fluorescence in mock treated leaves was set as 1.00.
# [2] = tested on: Pseudomonas syringae pv. tomato; experiment: Pseudomonas syringae pv. tomato in vitro cell test; type: cell-based; conditions: 20 ppm of active ingredient, 24 h of incubation, read-out: efficacy (inhibition of bacteria growth; no direct activity)
# Procedure: (§1) • Solvent: DMSO • Culture medium: LB broth medium (Luria Broth Miller) Sigma • Inoculum: bacteria suspension Compounds were solubilized in DMSO and the solution used to prepare the required range of concentrations. The final concentration of DMSO used in the assay was ≤1%. Inoculum was prepared from a pre-culture of bacteria grown in liquid medium and diluted to the desired optical density (OD). Compounds were evaluated for their ability to inhibit bacteria growth in liquid culture assay. The compounds were added in the desired concentrations to culture medium containing the bacteria suspension. After 24 h of incubation, the efficacy of compounds was determined by spectrometric measurement of bacteria growth. Inhibition was determined by comparing the absorbance values in wells containing the compounds with the absorbance in control wells without active ingredients.
# [3] = tested on: Peronospora parasitica; experiment: In vivo preventive test on Peronospora parasitica (Crucifer downy mildew) on cabbage; conditions: Hyaloperonospora parasitica, 120 h, sprayed 72 hours before inoculation, evaluated 5 days after inoculation, read-out: efficacy; for pest or weed control at 31 ppm: 31 ppm of active ingredient; for pest or weed control at 125 ppm: 125 ppm of active ingredient; for pest or weed control at 500 ppm: 500 ppm of active ingredient
# Procedure: (§2) The tested active ingredients were prepared by homogenization in a mixture of acetone/Dimethyl sulfoxide/Tween®, and then diluted with water to obtain the desired active material concentration.
# (§3) The young plants of cabbage were treated by spraying the active ingredient prepared as described above. Control plants were treated only with an aqueous solution of acetone/Dimethyl sulfoxide/Tween®.
# After 72 hours, the plants were contaminated by spraying the leaves with an aqueous suspension of Peronospora parasitica spores. The contaminated cabbage plants were incubated for 5 days at 20° C. and at 100% relative humidity.
# The test was evaluated 5 days after the inoculation. 0% means an efficacy which corresponds to that of the control plants while an efficacy of 100% means that no disease was observed.
# [4] = tested on: Uromyces appendiculatus; experiment: In vivo preventive test on Uromyces appendiculatus (bean rust); conditions: 240 h, sprayed 72 hours before inoculation, evaluated 10 days after inoculation, read-out: efficacy; for pest or weed control at 31 ppm: 31 ppm of active ingredient; for pest or weed control at 125 ppm: 125 ppm of active ingredient; for pest or weed control at 500 ppm: 500 ppm of active ingredient
# Procedure: as §2
# (§4) The young plants of bean were treated by spraying the active ingredient prepared as described above. Control plants were treated only with an aqueous solution of acetone/Dimethyl sulfoxide/Tween®.
# After 72 hours, the plants were contaminated by spraying the leaves with an aqueous suspension of Uromyces appendiculatus spores. The contaminated bean plants were incubated for 24 hours at 20° C. and at 100% relative humidity and then for 9 days at 20° C. and at 70-80% relative humidity.
# The test was evaluated 10 days after the inoculation. 0% means an efficacy which corresponds to that of the control plants while an efficacy of 100% means that no disease was observed.
# [5] = tested on: Alternaria alternata; experiment: Alternaria alternata in vitro cell test; type: cell-based; conditions: 120 h, 5 days incubation, read-out: efficacy (inhibition of fungal growth; no direct activity); for inhibition at 5 ppm: 5 ppm of active ingredient; for inhibition at 20 ppm: 20 ppm of active ingredient
# Procedure: (§5) • Solvent: DMSO • Culture medium: 14.6 g anhydrous D-glucose (VWR), 7.1 g Mycological Peptone (Oxoid), 1.4 g granulated Yeast Extract (Merck), QSP 1 liter • Inoculum: spores suspension Fungicides were solubilized in DMSO and the solution used to prepare the required range of concentrations. The final concentration of DMSO used in the assay was ≤[…]1%. A spore suspension of A. alternata was prepared and diluted to the desired spore density. Fungicides were evaluated for their ability to inhibit spore germination and mycelium growth in liquid culture assay. The compounds were added in the desired concentration to the culture medium with spores. After 5 days incubation, fungi-toxicity of compounds was determined by spectrometric measurement of mycelium growth. Inhibition of fungal growth was determined by comparing the absorbance values in wells containing the fungicides with the absorbance in control wells without fungicides.
# [6] = LogP by HPLC on reversed phase columns (EEC directive 79/831 Annex V.A8); type: physicochemical; conditions: reversed phase HPLC columns
# Procedure: [table] If more than one Log P value is available within the same method, all the values are given and separated by “+”. Calibration was done with straight-chain alkan2-ones (with 3 to 16 carbon atoms) with known Log P values (measurement of Log P values using retention times with linear interpolation between successive alkanones). Lambda-max-values were determined using UV-spectra from 200 nm to 400 nm and the peak values of the chromatographic signals.
# [7] = tested on: Colletotrichum lindemuthianum; experiment: Colletotrichum lindemuthianum in vitro cell test; type: cell-based; conditions: 144 h, 6 days incubation, read-out: efficacy (inhibition of fungal growth; no direct activity); for inhibition at 5 ppm: 5 ppm of active ingredient; for inhibition at 20 ppm: 20 ppm of active ingredient
# Procedure: as §5, with “of C. lindemuthianum” for “of A. alternata”, “inhibit spores” for “inhibit spore”, “After 6” for “After 5”
# [8] = tested on: Xanthomonas campestris pv. campestris; experiment: Xanthomonas campestris pv. campestris in vitro cell test; type: cell-based; conditions: 24 h of incubation, read-out: efficacy (inhibition of bacteria growth; no direct activity); for inhibition at 5 ppm: 5 ppm of active ingredient; for inhibition at 20 ppm: 20 ppm of active ingredient
# Procedure: as §1
# [9] = tested on: Xanthomonas campestris pv. campestris; experiment: In vivo preventive test on Xanthomonas campestris pv. campestris (black rot on cabbage); conditions: Xanthomonas campestris, sprayed 72 hours before inoculation, evaluated 8 or 10 days after inoculation, read-out: efficacy; for pest or weed control at 31 ppm: 31 ppm of active ingredient; for pest or weed control at 500 ppm: 500 ppm of active ingredient
# Procedure: as §2, §3
# After 72 hours, the plants were contaminated by spraying the leaves with an aqueous bacteria suspension of Xanthomonas campestris pv. campestris. The contaminated cabbage plants were incubated for 8 or 10 days at 27° C. at 95% relative humidity.
# The test was evaluated 8 or 10 days after the inoculation. 0% means an efficacy which corresponds to that of the control plants while an efficacy of 100% means that no disease was observed.
# [10] = tested on: Colletotrichum lindemuthianum; experiment: In vivo preventive test on Colletotrichum lindemuthianum (Anthracnose on bean); conditions: sprayed 72 hours before inoculation, evaluated 6 days after inoculation; for pest or weed control at 500 ppm / pest or weed control at 31 ppm / pest or weed control at 125 ppm: Colletotrichum lindemuthianum, 144 h, read-out: efficacy; for pest or weed control at 31 ppm: 31 ppm of active ingredient; for pest or weed control at 125 ppm: 125 ppm of active ingredient
# Procedure: as §2, §4
# After 72 hours, the plants were contaminated by spraying the leaves with an aqueous suspension of Colletotrichum lindemuthianum spores. The contaminated bean plants were incubated for 24 hours at 20° C. and at 100% relative humidity and then for 5 days at 20° C. and at 90% relative humidity.
# The test was evaluated 6 days after the inoculation. 0% means an efficacy which corresponds to that of the control plants while an efficacy of 100% means that no disease was observed.
# [11] = preparation examples, method not indicated, read-out: Log P
chromatographic logP ([6]; method [a]),Compound,fold induction at 75 ppm [1],fold induction at 300 ppm [1],inhibition at 20 ppm [2] [%],pest or weed control at 125 ppm [3] [%],pest or weed control at 500 ppm [3] [%],pest or weed control at 31 ppm [4] [%],pest or weed control at 500 ppm [4] [%],inhibition at 5 ppm [5] [%],inhibition at 20 ppm [5] [%],inhibition at 5 ppm [7] [%],inhibition at 5 ppm [8] [%],inhibition at 20 ppm [8] [%],other results
2.26,CCOC(=O)C(CC(N)=O)NC(=O)c1sc(Br)c(Br)c1C (stereo not shown) [I.016],> 2,> 2,≤ 30,90 to 100,90 to 100,90 to 100,80 to 89,≤ 30,≤ 30,≤ 30,≤ 30,≤ 30,pest or weed control at 31 ppm [3]: 90 to 100%; pest or weed control at 125 ppm [4]: 90 to 100%; inhibition at 20 ppm [7]: ≤ 30%
–,"O=C(NC1(C(=O)O)CC1)c1cc(Cl)c(Cl)s1 [CMP3, reference compound]",–,–,–,0,0,–,–,–,–,–,–,–,pest or weed control at 31 ppm [9]: < 40%; pest or weed control at 500 ppm [9]: 0%
–,"CCOC(=O)C1(NC(=O)CNC(=O)c2sc(Br)c(Br)c2C)CC1 [I.024, ethyl 1-({N-[(4,5-dibromo-3-methyl-2-thienyl)carbonyl]glycyl}amino)cyclopropanecarboxylate]",> 2,–,≤ 30,–,–,–,–,≤ 30,≤ 30,≤ 30,≤ 30,≤ 30,"chromatographic logP [6, 11]: 2.55; inhibition at 20 ppm [7]: ≤ 30%"
–,"COC(=O)CC[C@H](NC(=O)c1sc(Br)c(Br)c1C)C(=O)OC [CMP16, reference compound]",–,–,–,–,–,–,–,–,–,–,–,–,efficacy ([10]; 500 ppm of active ingredient): 38%
–,"CONC(=O)[C@@H](NC(=O)c1sc(Br)c(Br)c1C)C(C)C [I.074, N^2-[(4,5-dibromo-3-methyl-2-thienyl)carbonyl]-N-methoxyvalinamide]",–,> 2,≤ 30,–,–,–,–,≤ 30,≤ 30,≤ 30,≤ 30,≤ 30,"chromatographic logP [6, 11]: 2.77; inhibition at 20 ppm [7]: ≤ 30%"
3.23,CCOC(=O)CN(C)C(=O)c1sc(Br)c(Br)c1C [I.056],–,–,≤ 30,80 to 89,90 to 100,–,–,≤ 30,≤ 30,≤ 30,≤ 30,≤ 30,–
3.83,COC(=O)C1(NC(=O)c2sc(Br)c(Br)c2C)CCC(F)(F)CC1 [I.005],–,–,≤ 30,–,–,–,90 to 100,≤ 30,≤ 30,≤ 30,≤ 30,≤ 30,–
–,"CCOC(=O)CN(C)C(=O)c1sc(Br)c(Br)c1Br [CMP15, reference compound]",–,–,–,< 30,–,–,–,–,–,–,–,–,pest or weed control at 500 ppm ([10]; 500 ppm of active ingredient): < 40%
3.4,COC(=O)C1(NC(=O)c2sc(Br)c(Br)c2C)CCC1 [I.131],> 2,> 2,–,90 to 100,90 to 100,–,90 to 100,–,–,–,–,–,pest or weed control at 500 ppm ([10]; 500 ppm of active ingredient): 80 to 89%; pest or weed control at 31 ppm [3]: 80 to 89%; pest or weed control at 125 ppm [4]: 90 to 100%
–,"CCOC(=O)C1(NC(=O)c2cc(Cl)c(Cl)s2)CC1 [CMP6, reference compound]",–,–,–,0,0,–,–,–,–,–,–,–,pest or weed control at 31 ppm [10]: < 40%
3.81,CCOC(=O)C1(NC(=O)c2sc(Br)c(Br)c2C)CCC1 [I.132],> 2,> 2,–,80 to 89,90 to 100,90 to 100,90 to 100,–,–,–,–,–,pest or weed control at 500 ppm ([10]; 500 ppm of active ingredient): 70 to 79%; pest or weed control at 31 ppm [3]: 80 to 89%; pest or weed control at 125 ppm [4]: 90 to 100%
–,"COC(=O)C1(NC(=O)c2cc(Cl)c(Cl)s2)CC1 [CMP4, reference compound]",–,–,–,0,0,< 40,–,–,–,–,–,–,pest or weed control at 31 ppm [10]: 0%; pest or weed control at 125 ppm [10]: < 40%; pest or weed control at 31 ppm [9]: 0%; pest or weed control at 500 ppm [9]: 0%
–,"COC(=O)C1(NC(=O)c2cc(Br)c(Br)s2)CC1 [CMP5, reference compound]",–,–,–,< 40,–,0,< 20,–,–,–,–,–,pest or weed control at 125 ppm [10]: 0%
